Test results as given in US20090029966A1, “COMBINATION THERAPY WITH PARP INHIBITORS” (ABBOTT LABORATORIES, priority 2006, published 2009).

What was measured:
HCT-116 tumors = HCT-116 tumors in nude mice, combination with radiotherapy; type: in vivo; settings: 6.25, 12.5 or 25 mg/kg/day i.p. OMP 14 days + radiation 2 Gy/day x 10 doses; compared to radiotherapy or compound alone
Procedure: This study was done in nude mice bearing HCT-116 tumors in the leg. Three days (−3) prior to the beginning of radiotherapy, mice were implanted i.p with OMPs delivering A-620223 at 0, 6.25, 12.5, or 25 mg/kg/day for 14 days. Starting day 0 mice received radiation treatment (2 Gy/day) for 10 doses alone or in combination with the 3 different doses of 2-(N-propylpiperidin-4-yl)benzimidazole-4-carboxamide.

B16F10 murine melanoma = experiment: B16F10 murine melanoma, combination with TMZ; type: in vivo, C57BL/6 mice; settings: A-861695 25, 12.5 or 3.1 mg/kg/day p.o. b.i.d. days 1-14 + TMZ 62.5 mg/kg/day p.o. q.d. x5
Procedure: This study was done on mice with B 16F 10 murine melanoma. Mice were divided into six treatment groups with 8-10 mice per group. See figure two for treatment groups. B16F10 cells were injected s.c. into C57BL/6 mice on day 0. Dosing was initiated on day one. A-861695 was administered p.o., b.i.d. on days 1-14. On days 3-7 temozolomide (TMZ) was administered p.o., q.d. (for the groups receiving both TMZ and A-861695, TMZ was given two hours after the A-861695 was administered).

[1] = tested on: MX-1 breast carcinoma xenograft; experiment: MX-1 breast carcinoma xenograft, combination with carboplatin; type: in vivo, scid mice
From the text: The MX-1 breast carcinoma xenograft model in scid mice was used to test the ability of A-861695 to potentiate the efficacy of platinum-based agents. This cell line was derived from a person with a poorly differentiated mammary carcinoma. MX-1 is sensitive to cytotoxic agents. Carboplatin, a second-generation platinum containing anticancer drug, is currently the standard of care for treating lung, ovarian, and head and neck cancers. MX-1 tumors are sensitive to carboplatin. […] Mice were randomized into treatment groups of 8-10 mice per group. […] A-861695 was administered at 25 mg/kg/day s.c., via 14-day osmotic minipumps (OMPs) starting on day 17. Carboplatin was given i.p., on day 20, 24 and 27.

[2] = tested on: MX-1 breast carcinoma xenograft; experiment: MX-1 breast carcinoma xenograft, combination with cisplatin; type: in vivo, nude mice
Procedure: In this study the efficacy of A-861695 in combination with cisplatin was evaluated in the MX-1 breast carcinoma xenograft model in nude mice. Tumors were size-matched to 100 mm^3 on day 16 and PARP inhibitor therapy (p.o., b.i.d. ×8) was initiated the same day. A single dose of cisplatin at 6.0 mg/kg/day was administered i.p. day 18. Data, shown in FIG. 5, are mean±S.E.M. of 9 mice per treatment group.

[3] = tested on: 9 L orthotopic gliosarcoma; experiment: 9L orthotopic gliosarcoma, combination with TMZ; type: in vivo, Fisher 344 rats
Procedure: Tumor growth was monitored longitudinally using contrast-enhanced magnetic resonance imaging (MRI). Animal survival was evaluated based on humane euthanasia of rats presenting signs of irreversible illness.

[4] = tested on: intra-cerebellar medulloblastoma xenographs; HSB T-cell ALL; JM1 pre-B ALL; P115 primary AML cells; experiment: TMZ and ABT-888 combinations in medulloblastoma xenografts and leukemia cells (FIGS. 7-11); type: in vivo, mice; settings: differing amounts of TMZ and ABT-888 combinations
DoHH-2 cells = experiment: B-cell lymphoma (DoHH-2 cell) flank xenograft; settings: for Mean Tumor Volume Day 27 mm^3 ± SE: ABT-888 25 mg/kg/day PO BID 7 days, Temozolomide 50 mg/kg/day PO QD 5 days, tumor size at start 503 mm^3; for % T/C Day 28 (dosing 11 days): treatment group/corresponding vehicle group x 100
Procedure: Animals were size matched on day 15 to an approximate tumor volume of 503 mm^3.
Group mouse weights were recorded three times a week to monitor for weight loss due to toxicity or excessive tumor burden.

[5] = tested on: PC3M-Luc human prostate carcinoma; experiment: Orthotopic PC3M-Luc human prostate carcinoma model (BLI); type: in vivo, male SCID-C.B17 mice; settings: TMZ 50 mg/kg/day alone or with ABT-888 25 mg/kg/day
Procedure: Bioluminescent PC-3M-luciferase-C6 osteolytic human prostate cancer cells, constitutively expressing luciferase (Caliper Life Sciences, Hopkinton, Mass.) were orthotopically injected into the prostates of ˜10-week-old male SCID-C.B17 mice (C.B-17/IcrCrl-scid-BR, Charles River Labs). Mice were housed in a facility with constant humidity, temperature and a 12-h light-dark cycle. Mice were anesthetized with intramuscular injections of ketamine (40 mg/kg) and rompum (5 mg/kg) before surgery. The surgical region was shaved and sterilized with iodine and alcohol swabs. A lower midline incision was made to access the prostate. The left lobe of the dorsal prostate was injected with 1×10^6 PC3M-Luc cells (975 photon/second/cell) in 30 μl (1:1 matrigel, Collaborative Biomedical Products, Bedford, Mass.). The peritoneal cavity was closed with 4-0 suture and skin incision was closed with clip.
In vivo bioluminescent image (BLI) was performed with an IVISR Imaging System (Caliper Life Sciences, Hopkinton, Mass.). […] Images and measurements of bioluminescent signals were acquired and analyzed using Living Image® software (Caliper Life Sciences, Hopkinton, Mass.). Uniform region of interests (ROIs) were used across all groups and time points to achieve quantification of bioluminescent signal. […] The mice were then monitored with this system at weekly intervals. […]

tumor = experiment: Valproic acid and radiotherapy (FIG. 6); type: in vivo; settings: single and combined administration of valproic acid and radiotherapy
[6] = TMZ 50 PO q.d x 5, ABT-888/TMZ 25/50 mg/kg/day po b.i.d./po q.d., normalized BLI post size match

CCCN1CCC(c2nc3cccc(C(N)=O)c3[nH]2)CC1 [2-(N-propylpiperidin-4-yl)benzimidazole-4-carboxamide]
reduction of tumor size in combination with radiotherapy (FIG. 1) (HCT-116 tumors): significant improvement in the reduction of tumor size

C[C@]1(c2nc3c(C(N)=O)cccc3[nH]2)CCCN1 [ABT-888, 2-[(2R)-2-methylpyrrolidin-2-yl]-1H-benzimidazole-4-carboxamide]
potentiation of TMZ efficacy (FIG. 2) (B16F10 murine melanoma): significantly potentates the TMZ efficacy in a dose dependent manner | potentiation of carboplatin (tumor volumes, FIG. 4) ([1]; A-861695 25 mg/kg/day s.c. OMP 14 days + carboplatin 10 and 15 mg/kg/day): pronounced potentiation of carboplatin | cures (no measurable tumors at end of the trial) ([2]; A-861695 5 mg/kg/day p.o. b.i.d. x8 + cisplatin 6.0 mg/kg/day i.p. day 18): 8/9 | cures (no measurable tumors at end of the trial) ([2]; A-861695 25 mg/kg/day p.o. b.i.d. x8 + cisplatin 6.0 mg/kg/day i.p. day 18): 8/9 | cures (no measurable tumors at end of the trial) ([2]; A-861695 50 mg/kg/day p.o. b.i.d. x8 + cisplatin 6.0 mg/kg/day i.p. day 18): 6/9 | dose at which maximal potentiation of cisplatin was reached ([2]; dose-response 5, 25, 50 mg/kg/day): 5 mg/kg/day | tumor volume reduction better than TMZ alone ([3]; A-861695 50 mg/kg/day + TMZ 17.5 mg/kg/day, day 14, p<0.005): 44% | reduction of tumor volume (day 14) ([3]; A-861695 50 mg/kg/day p.o. b.i.d. in combination with TMZ 17.5 mg/kg/day p.o. q.d., MRI): 63% | animal survival ([3]; A-861695 18 or 50 mg/kg/day with TMZ, p<0.005 Log-rank test): significantly prolonged animal survival | bioavailability in brain tissue (compared to other PARP inhibitors): improved bioavailability in brain tissue | blood brain barrier (rat, in vivo): crosses the blood brain barrier | effect on toxicity of TMZ (FIGS. 7-11) [4]: enhancement of toxicity of TMZ | Mean Tumor Volume Day 27 mm^3 ± SE (DoHH-2 cells): 2970 ± 410 mm^3 | Observations (DoHH-2 cells; toxicity assessment in Scid female mice): None | % T/C Day 28 (dosing 11 days) (DoHH-2 cells): 127 (—) %

Cn1nnc2c(C(N)=O)ncn2c1=O [TMZ, temozolomide]
efficacy after second treatment schedule (day 55) [5]: no efficacy | Mean Tumor Volume Day 27 mm^3 ± SE (DoHH-2 cells): 2202 ± 253 mm^3 | % T/C Day 28 (dosing 11 days) (DoHH-2 cells): 94% | % TGI Day 28 (dosing 11 days) (DoHH-2 cells; tumor growth inhibition vs vehicle): 6% | Day 12 % Tumor change (BLI) (MDA-231-LN-luc cells; [6]): 66 ± 76% | Day 30 % Tumor change (BLI) (MDA-231-LN-luc cells; [6]): 1217 ± 560% | Weight loss (Observations) (MDA-231-LN-luc cells; after last dose of 2nd cycle): >10% after last | Mortality (MDA-231-LN-luc cells; three cycles of 5 days with 11 days of rest, n=11): 0/11

N.N.O=C([O-])C1(C(=O)[O-])CCC1.[Pt+2] [carboplatin, reference compound]
tumor inhibition as a single agent (FIG. 4) ([1]; carboplatin 5, 10, 15 mg/kg/day i.p. day 20, 24, 27): dose-dependent tumor inhibition

N.N.[Cl][Pt][Cl] [cisplatin, reference compound]
cures (no measurable tumors at end of the trial) ([2]; cisplatin monotherapy 6.0 mg/kg/day i.p. day 18): 3/9

CCCC(CCC)C(=O)O [valproic acid]
effect on radiotherapy (FIG. 6) (tumor): can enhance the effects of radiotherapy
